Columns and labels:
P. stuartii = test: Polymyxin test: colorimetric detection of growth (glucose metabolization, phenol red) in presence of colistin sulphate; type: cell-based; set-up: key: +, yellow; -, orange; settings: strain Pstu; colistin sulphate 3.75 mg/L final; visual colour change, up to 4 h at 37°C
Protocol: (§1) Each inoculum was prepared by mixing 1 öse (10 µl) of a fresh culture of the tested bacteria in 5 ml of sterile NaCl 0.85% (at a density of 3 Mac Farland, i.e. about 10^9 CFU/ml).
(§2) 250 ml of reactive medium was prepared by mixing the compounds hereafter: • a broth powder of a non selective growth medium for bacteria, the Cation-Adjusted Mueller-Hinton broth (MHB-CA) : 6.25 g • a colour indicator, the phenol red : 0.0125 g • sterile distilled water 225 ml • sterile D (+)-glucose (10 %) anhydrous (sterilization by filtration) : 25 ml
(§3) The pH of the final reactive medium was adjusted to 6.6 and 6.7 with HCl 1M.
(§4) Colistin or polymyxin B was added or not at the concentration of 5 mg/L in the reactive medium. Standard colistin sulphate and polymyxin B were from Sigma Aldrich (Saint-Louis, France). Those antibiotic molecule powders were kept at 4°C before their use, whereas polymyxin dilutions were kept at -20°C.
(§5) For each strain, two wells of a plastic sterile plate with 96 shaped wells were inoculated in parallel with and without polymyxin (colistin sulphate or polymyxin B) in order to compare their colour change.
(§6) Plastic sterile plates were from Sarstedt (Nümbrecht, Germany). The tray may be prepared as follows : • 1. 150 µl of reactive medium colistin free (obtained in 1.) in the first line • 2. 150 µl of reactive medium with 5 mg/l of colistin sulphate in the second line (final concentration = 3.75 mg/l) • 3. 50 µl of NaCl alone in the first column (one well colistin-free and one well with colistin sulphate) (medium control) • 4. 50 µl of the bacterial suspension (obtained in 2.) for the control strains and for every strain in the other column (one well colistin-free and one well with colistin)
(§7) After mixing of the bacterial suspension to the reactive medium by pipetting up and down, the final concentration of bacteria was 2.5.10^8 CFU/ml in each well and the final selective concentration of colistin or polymyxin B in the well with polymyxin was 3.75 mg/L.
(§8) The results of the tests were recorded at 10 min (checking for no spontaneous colour change in the well) and then every hour for a maximum of 4 hours by visual inspection. No colour change of the well with colistin sulphate or polymyxin B indicated susceptibility to colistin sulphate or polymyxin B and negativity of those tests. On the contrary, a colour change (orange to yellow) indicates the positivity of the test meaning growth capability (related to glucose metabolism) in presence of colistin sulphate or polymyxin B, i.e. resistance to colistin sulphate or polymyxin B.
(§9) All experiments were repeated in triplicate.

C. freundii = test: as above; type: cell-based; set-up: key: +, yellow; -, orange; settings: colistin sulphate 3.75 mg/L final, visual colour change, up to 4 h at 37°C
Protocol: as §1, §2, §3, §4, §5, §6, §7, §8, §9

E. aerogenes = test: as above; type: cell-based; set-up: key: +, yellow; -, orange; settings: strain 6 FR; colistin sulphate 3.75 mg/L final; visual colour change, up to 4 h at 37°C
Protocol: as §1, §2, §3, §4, §5, §6, §7, §8, §9

E. cloacae = test: as above; type: cell-based; set-up: key: +, yellow; -, orange; settings: colistin sulphate 3.75 mg/L final, visual colour change, up to 4 h at 37°C
Protocol: as §1, §2, §3, §4, §5, §6, §7, §8, §9

K. oxytoca = test: as above; type: cell-based; set-up: key: +, yellow; -, orange; settings: strain C24; colistin sulphate 3.75 mg/L final; visual colour change, up to 4 h at 37°C
Protocol: as §1, §2, §3, §4, §5, §6, §7, §8, §9

H. alvei = test: as above; type: cell-based; set-up: key: +, yellow; -, orange; settings: strain ER; colistin sulphate 3.75 mg/L final; visual colour change, up to 4 h at 37°C
Protocol: as §1, §2, §3, §4, §5, §6, §7, §8, §9

M. morganii = test: as above; type: cell-based; set-up: key: +, yellow; -, orange; settings: strain Mmor; colistin sulphate 3.75 mg/L final; visual colour change, up to 4 h at 37°C
Protocol: as §1, §2, §3, §4, §5, §6, §7, §8, §9

E. coli [1] = test: MIC determination, broth microdilution in Cation-Adjusted Mueller-Hinton broth (CLSI); type: cell-based, Escherichia coli; settings: for Colistin resistance: EUCAST breakpoints
Protocol: (§10) Determination of MIC values were performed using the reference technique (broth microdilution in Cation-Adjusted Mueller-Hinton broth) according to the CLSI guidelines. Polymyxin B and colistin (Sigma-Aldrich, Saint-Louis) were tested over a range dilution from 0.12 to 128 µg/ml and 5.10^5 CFU/ml of bacteria in each well was used. Following the EUCAST breakpoints (http://www.eucast.org/), strains with a colistin MICs of ≤ 2 µg/ml were categorized as susceptible, although those with MICs of > 2 µg/ml were resistant.
as §9

P. mirabilis = test: Polymyxin test: colorimetric detection of growth (glucose metabolization, phenol red) in presence of colistin sulphate; type: cell-based, Proteus mirabilis; set-up: key: +, yellow; -, orange; settings: strain Pmir; colistin sulphate 3.75 mg/L final; visual colour change, up to 4 h at 37°C
Protocol: as §1, §2, §3, §4, §5
(§11) Plastic sterile plates were from Sarstedt (Nümbrecht, Germany). The tray may be prepared as follows : • 1. […]
(§12) The results of the tests were recorded at 10 min (checking for no spontaneous colour change in the well) and then every hour for a maximum of 4 hours by visual inspection. […]

E. coli [2] = test: as above; type: cell-based, Escherichia coli; set-up: key: +, yellow; -, orange; settings: colistin sulphate 3.75 mg/L final, visual colour change, up to 4 h at 37°C
Protocol: as §1, §2, §3, §4, §5, §6, §7, §8, §9

S. marcescens [3] = test: MIC determination, broth microdilution in Cation-Adjusted Mueller-Hinton broth (CLSI); type: cell-based, Serratia marcescens; settings: strain Smar
Protocol: as §10, §9

S. marcescens [4] = test: Polymyxin test: colorimetric detection of growth (glucose metabolization, phenol red) in presence of colistin sulphate; type: cell-based, Serratia marcescens; set-up: key: +, yellow; -, orange; settings: strain Smar; colistin sulphate 3.75 mg/L final; visual colour change, up to 4 h at 37°C
Protocol: as §1, §2, §3, §4, §5, §11, §12

Substance: colistin sulphate
- Results of the method of the invention (P. stuartii): +
- Results of the method of the invention (C. freundii; strain 8 FR): -
- Results of the method of the invention (C. freundii; strain C136): -
- Results of the method of the invention (E. aerogenes): -
- Results of the method of the invention (E. cloacae; strain 7 FR): -
- Results of the method of the invention (E. cloacae; strain C28): +
- Results of the method of the invention (E. cloacae; strain C129): -
- Results of the method of the invention (E. cloacae; strain C144): -
- Results of the method of the invention (E. cloacae; strain HM): +
- Results of the method of the invention (K. oxytoca): +
- Results of the method of the invention (H. alvei): +
- Results of the method of the invention (M. morganii): +
- Colistin MIC (E. coli [1]; strain 3 FR): 0.12 µg/mL
- Colistin resistance (E. coli [1]; strain 3 FR): - (strains with a colistin MICs of ≤ 2 µg/ml were categorized as susceptible)
- Colistin MIC (E. coli [1]; strain 5 FR): 0.25 µg/mL
- Colistin resistance (E. coli [1]; strain 5 FR): - (strains with a colistin MICs of ≤ 2 µg/ml were categorized as susceptible)
- Colistin MIC (E. coli [1]; strain 10 FR): 0.25 µg/mL
- Colistin resistance (E. coli [1]; strain 10 FR): - (strains with a colistin MICs of ≤ 2 µg/ml were categorized as susceptible)
- Colistin resistance (E. coli [1]; strain 27563): + (those with MICs of > 2 µg/ml were resistant)
- Colistin MIC (E. coli [1]; strain 27563, resistance mechanism Unknown): 16 µg/mL
- Colistin resistance (E. coli [1]; strain 27837): + (those with MICs of > 2 µg/ml were resistant)
- Colistin MIC (E. coli [1]; strain 27837, resistance mechanism Unknown): 16 µg/mL
- Colistin resistance (E. coli [1]; strain 27850): + (those with MICs of > 2 µg/ml were resistant)
- Colistin MIC (E. coli [1]; strain 27850, resistance mechanism Unknown): 16 µg/mL
- Colistin resistance (E. coli [1]; strain 27852): + (those with MICs of > 2 µg/ml were resistant)
- Colistin MIC (E. coli [1]; strain 27852, resistance mechanism Unknown): 8 µg/mL
- Colistin resistance (E. coli [1]; strain 30742): + (those with MICs of > 2 µg/ml were resistant)
- Colistin MIC (E. coli [1]; strain 30742, resistance mechanism Unknown): 8 µg/mL
- Colistin MIC (E. coli [1]; strain ATCC 25922): 0.25 µg/mL
- Colistin resistance (E. coli [1]; strain ATCC 25922): - (strains with a colistin MICs of ≤ 2 µg/ml were categorized as susceptible)
- Colistin MIC (E. coli [1]; strain C140): 0.12 µg/mL
- Colistin resistance (E. coli [1]; strain C140): - (strains with a colistin MICs of ≤ 2 µg/ml were categorized as susceptible)
- Colistin MIC (E. coli [1]; strain Top10): 0.12 µg/mL
- Colistin resistance (E. coli [1]; strain Top10): - (strains with a colistin MICs of ≤ 2 µg/ml were categorized as susceptible)
- Results of the method of the invention (P. mirabilis): +
- Results of the method of the invention (E. coli [2]; strain 3 FR): -
- Results of the method of the invention (E. coli [2]; strain 5 FR): -
- Results of the method of the invention (E. coli [2]; strain 10 FR): -
- Results of the method of the invention (E. coli [2]; strain 27563): +
- Results of the method of the invention (E. coli [2]; strain 27837): +
- Results of the method of the invention (E. coli [2]; strain 27850): +
- Results of the method of the invention (E. coli [2]; strain 27852): +
- Results of the method of the invention (E. coli [2]; strain 30742): +
- Results of the method of the invention (E. coli [2]; strain ATCC 25922): -
- Results of the method of the invention (E. coli [2]; strain C140): -
- Results of the method of the invention (E. coli [2]; strain Top10): -
- Colistin resistance (S. marcescens [3]; EUCAST breakpoints): + (those with MICs of > 2 µg/ml were resistant)
- Colistin MIC (S. marcescens [3]; Natural resistance): >128 µg/mL
- Results of the method of the invention (S. marcescens [4]): +

From patent EP3070175A1, “TEST FOR DETERMINING SUSCEPTIBILITY OR RESISTANCE TO POLYMYXINS IN ENTEROBACTERIACEAE” (Université de Fribourg, priority 2015, dated 2016)
